Columns and labels:
[1] = system: Jurkat cell adherence to FN; assay: Jurkat cell adherence to fibronectin (calcein-AM fluorescence); assay type: cell-based; conditions: for reversal of the inhibitory effect of lovastatin on PMA-stimulated Jurkat cell adhesion: co-incubated with lovastatin 2.5 days
Procedure: (§1) Briefly, Jurkat and U937 cells (American Type Culture Collection; Manassas Va.) were maintained in Earles Modified Eagles Medium (EMEM; M. A. Bioproducts, Walkersville, Md.) supplemented with 10% fetal bovine serum (FBS; Hyclone Laboratories Inc.; Logan Utah), 5 mM glutamine (Life Technologies Inc.; Gaithersburg Md.), 5 mM sodium pyruvate (Life Technologies), and […] (Life Technologies). Lovastatin (Calbiochem; San Diego Calif.) was converted to open acid form before use. […] The solution was heated to 50° C. for two hours. To this heated solution, 4.5 ml of an aqueous solution containing 81 mM NaH2PO4 and […] was added. The solution was heated to 40° C. for 30 min and the pH was adjusted to 7.3 with concentrated HCl. The final concentration was determined by UV spectroscopy (ε231 =21,490 M^−1cm^−1). The stock solution was frozen in small aliquots.
Cell adhesion of Jurkat cells and U937 cells to fibronectin (FN) or laminin (LN), respectively, was measured. Human FN (1.25 μg/ml)(Collaborative Research Inc.; Bedford Mass.) or human LN (100 μg/ml)(Life Technologies) was coated onto 96-well PRO-BIND assay plate (Falcon; Becton Dickinson; Lincoln Park N.J.) by incubating overnight at 4° C. The plate was then blocked with 3% bovine serum albumin (BSA) in phosphate buffered saline (PBS) at room temperature for one hour. Immediately before use, plates were washed three times with PBS.
(§2) After centrifugation for seven min at 300 xg, cells were resuspended in 1 ml phenol red-free medium and then labeled by incubation with 5 μl of the fluorescent dye calcein-AM (1 mg/ml in DMSO; Molecular Probes; Eugene Oreg.) for 30 min at room temperature in the dark. The cells were then washed twice with phenol red-free medium. After incubation with phorbol 12-myristate 13--acetate (PMA) (100 ng/ml) (Sigma; St. Louis Mo.), which is an activator of protein kinase C (PKC), or MAb 8A2 (2 μg/ml) for 30 min in control medium at room temperature, cells (˜1×10^5/well) were added to triplicate wells. After incubation for 30 min at 37° C., the total cells in the well were analyzed using a fluorescence plate reader (PerSeptive Biosystem; Framingham Mass.). Unbound cells were removed by washing the plate three times with phenol red-free medium, and the plate was then reanalyzed to determine fluorescence of bound cells. After subtraction of background, the percent adherence was calculated as the emission at 530 nm of bound cells divided by the […] of total cells.

ERK1 = assay: Immunoblot for phosphorylated ERK1 in PMA-treated Jurkat cells; assay type: cell-based
[2] = Mouse hind limb ischemia and reperfusion, leg diameter; assay type: in vivo; conditions: 7 μg/g i.p. at beginning of 30 min ischemia; 24 hours; t-test
Procedure: Briefly, mice were anesthetized with halothane. A tourniquet was then placed on one hind limb to completely occlude blood flow and kept in place for 30 min. Body temperature was maintained at 37° C. with a heating blanket during the period of ischemia. Perfusion of the hind limb was re-established by removal of the tourniquet, and leg diameter was measured hourly for the next 6 hours and again at 24 hours.

[3] = system: neutrophil (PMN) and mononuclear cell migration into lung; assay: LPS-induced pulmonary inflammation in mice, cell counts in lung lavage fluid; assay type: in vivo
Procedure: (§3) Pulmonary inflammation was induced in mice using a technique similar to that reported by others (Szarka et al., J. Immunol. Methods 202:49-57 (1997)). Briefly, mice were anesthetized with halothane, then 2.5 μl/g was placed into their nares where it was rapidly taken into the trachea and deep into the lungs. […] Compounds were administered in a given amount per g of mouse body weight. In a second set of experiments, PMA (50 ng/μl final concentration; 5 mg/ml stock solution in dimethyl sulfoxide) was used in place of LPS. Mice were allowed to recover from anesthesia and returned to their cages with free access to food and water.
At either 24 (LPS and PMA) or 48 (LPS) hours, mice were returned to the laboratory and killed, their chest rapidly opened, then both lungs were lavaged with 0.5 ml of normal saline followed by a second lavage of another 0.5 ml of normal saline that was lavaged in and out four times. The lavage fluid was combined, total cell counts determined using a hemocytometer, cytospin preparations were then made, the cells stained using the commercial kit (DiffQuik; Baxter Healthcare Corp.; Miami Fla.), and differential cells counts completed. The total number of mononuclear cells and neutrophils in the lavage fluid was determined by counting 100 cells. The number of neutrophils or macrophages was determined by multiplying the percentages by the total cell count. Differences between groups were tested using the computer program Stat View (Abacus Concepts; Berkeley Calif.) by analysis of variances and post hoc testing using Fisher's protected least square differences. Differences were assumed significant for p<0.05. The lavage fluid remaining after cytospin and cell counts was subjected to centrifugation, and the supernatant collected and frozen at −20° C. for later cytokine analysis. […] Thus, lavage fluid was derived from regions where LPS was deposited as well as those regions receiving no challenge.
The LPS was given at the same time as the last dose of lovastatin by i.n. instillation as described above. […] Mice were returned to their cages with free access to food and water for 24 hours, then returned to the laboratory and killed. Lavage was performed and cell counts completed as described above.

RhoA = RhoA immunoblot (electrophoretic mobility as measure of isoprenylation) in Jurkat cells; assay type: cell-based
Procedure: Cell lysates were subjected to immunoblot analysis to assess RhoA electrophcoretic mobility as a measurement of isoprenylation. For RhoA blots, membranes were sequentially incubated with rabbit anti-RhoA antibody (Santa Cruz Biotechnology, Inc.) in TBST at room temperature for three hours, washed with TBST five times, incubated with goat anti-rabbit IgG (H+L) conjugated with horse radish peroxidase (HRP) (Bio-Rad Laboratories; Hercules Calif.) for one hour, and then washed with TBST five times. RhoA bands were visualized on x-ray film by incubation of membrane with chemiluminescence luminol reagent (Santa Cruz Biotechnology) at room temperature for one minute.

[4] = system: U937 cell adherence to LN; assay: U937 cell adherence to laminin (calcein-AM fluorescence); assay type: cell-based
Procedure: as §1
Cell adhesion of Jurkat cells and U937 cells to fibronectin (FN) or laminin (LN), respectively, was measured. Human FN (1.25 μg/ml)(Collaborative Research Inc.; Bedford Mass.) or human LN (100 μg/ml)(Life Technologies) was coated onto 96-well PRO-BIND assay plate (Falcon; Becton Dickinson; Lincoln Park N.J.) by incubating overnight at 4° C. […]
as §2, with “The cells were then washed twice with phenol red-free medium. After incubation with phorbol 12-myristate 13--acetate (PMA) (100 ng/ml) (Sigma; St. Louis Mo.), which is an activator of protein kinase C (PKC), or MAb 8A2 (2 μg/ml) for 30 min in control medium at room temperature, cells (˜1×10^5/well) were added to triplicate wells.” left out

[5] = system: neutrophil (PMN) and mononuclear cell migration into lung; assay: PMA-induced pulmonary inflammation in mice, cell counts in lung lavage fluid; assay type: in vivo; conditions: i.n. lovastatin 7.0 μg/g with i.n. PMA; 24 hours
Procedure: as §3
At either 24 (LPS and PMA) or 48 (LPS) hours, mice were returned to the laboratory and killed, their chest rapidly opened, then both lungs were lavaged with 0.5 ml of normal saline followed by a second lavage of another 0.5 ml of normal saline that was lavaged in and out four times. The lavage fluid was combined, total cell counts determined using a hemocytometer, cytospin preparations were then made, the cells stained using the commercial kit (DiffQuik; Baxter Healthcare Corp.; Miami Fla.), and differential cells counts completed. The total number of mononuclear cells and neutrophils in the lavage fluid was determined by counting 100 cells. The number of neutrophils or macrophages was determined by multiplying the percentages by the total cell count. […]

TNFα = TNFα ELISA in lung lavage fluid of LPS-challenged mice; assay type: in vivo, murine
Procedure: (§4) Lavage fluids were used to measure cytokine production. The murine chemoattractant KC is a member of the CXC chemokine family of inflammatory cytokines and was measured by ELISA (R&D Systems; Minneapolis Minn.). The pro-inflammatory cytokine murine TNFα was also measured by ELISA (R&D Systems). The protocol for both assays was similar. Briefly, assay diluent was mixed with sample, which was the lavage fluid obtained as described in Example IV. The diluent was added to the appropriate capture plate and incubated for two hours. Plates were washed, incubated with conjugated anti-KC or anti-TNFα antibody for two hours, washed again, and then incubated with substrate for 30 min. A stop solution was then added, and the optical density determined by plate reader.

KC = KC chemokine ELISA in lung lavage fluid of LPS-challenged mice; assay type: in vivo, murine
Procedure: as §4

COc1cccc(-c2cc(=O)c3ccccc3o2)c1N [PD-98059]
PMA-stimulated Jurkat cell adherence ([1]; 10 μM, 30 min pre-incubation before PMA): did not inhibit | ERK1 phosphorylation (ERK1; Jurkat cells pre-incubated 30 min with MEK-1 inhibitor before PMA): completely blocked

CC(C)=CCC/C(C)=C/CC/C(C)=C/CO [FOH, trans, trans-farnesol]
reversal of the inhibitory effect of lovastatin on PMA-stimulated Jurkat cell adhesion [1]: not

CC[C@H](C)C(=O)O[C@H]1C[C@@H](C)C=C2C=C[C@H](C)[C@H](CC[C@@H]3C[C@@H](O)CC(=O)O3)[C@H]21 [lovastatin]
leg diameter after ischemia and reperfusion, vehicle vs lovastatin [2]: significantly larger diameter than the lovastatin treated leg | percent of PMNs in lavage fluid compared with the control group ([3]; i.n. lovastatin 0.7 μg/g with i.n. LPS, 24 hours): 74% | percent of PMNs in lavage fluid compared with the control group ([3]; i.n. lovastatin 0.7 μg/g with i.n. LPS, 48 hours): 75% | percent of PMNs in lavage fluid compared with the control group ([3]; i.n. lovastatin 1.4 μg/g with i.n. LPS, 24 hours): 28% | percent of PMNs in lavage fluid compared with the control group ([3]; i.n. lovastatin 1.4 μg/g with i.n. LPS, 48 hours): 32% | percent of PMNs in lavage fluid compared with the control group ([3]; i.n. lovastatin 7.0 μg/g with i.n. LPS, 24 hours): 4% | percent of PMNs in lavage fluid compared with the control group ([3]; i.n. lovastatin 7.0 μg/g with i.n. LPS, 48 hours): 5% | total number of lavage mononuclear leukocytes ([3]; i.n. lovastatin with i.n. LPS, 24 hours): no effect | number of mononuclear leukocytes in lavage fluid ([3]; i.n. lovastatin with i.n. LPS, 48 hours, differences not statistically significant): somewhat less | number of PMNs accumulating, percent of control group ([3]; i.p. lovastatin 7.0 μg/g daily x3, i.n. LPS, 24 hours, p<0.05): 30% | number of mononuclear leukocytes in lavage fluid ([3]; i.p. lovastatin 7.0 μg/g, i.n. LPS, 24 hours): not different between groups | isoprenylation state of RhoA (RhoA; 14 μM lovastatin): Most RhoA was in non-isoprenylated form | concentration at which geranylgeranylation of RhoA was significantly inhibited (RhoA; Jurkat cells, 2.5 days): ≥ 0.5 µM | effect on mAb 8A2-stimulated Jurkat cell adherence to FN ([1]; 8A2 2 μg/ml, 2.5 days pretreatment): no significant effect | inhibition of PMA-stimulated Jurkat cell adherence to FN ([1]; concentration greater than 5 μM, 2.5 days pretreatment): nearly completely inhibited | inhibition of mAb 8A2-stimulated adherence of U937 cells to LN ([4]; lovastatin pretreatment, 8A2 2 μg/ml): not | inhibition of PMA-stimulated adherence of U937 cells to LN ([4]; lovastatin pretreatment, PMA 100 ng/ml): inhibited | effect on stimulated adherence when added at the time of the adhesion assay instead of pretreating ([4]; no pretreatment): without effect | inhibition of PMN emigration [5]: ~100% | mononuclear cell number, control vs lovastatin treatment [5]: no difference | TNF concentration in lavage fluid (TNFα; i.n. lovastatin, 24 hours, all doses significant vs control): reduced in a dose-dependent manner | TNF concentration in lavage fluid, differences from control (TNFα; i.n. lovastatin, 48 hours): not significant | TNF production (TNFα; i.p. lovastatin, 24 hours after i.n. LPS, statistically significant): effective in preventing TNF production | PMA-stimulated MAPK (ERK1) phosphorylation (ERK1; Jurkat cells, lovastatin 2.5 days, concentrations up to 40 μM, PMA 100 ng/ml 30 min): does not inhibit | concentration of KC chemokine in the lavage fluid (KC; i.n. lovastatin, 24 hours after LPS, 7.0 μg/g group significantly different from control): reduced | KC concentration in the lavage fluid (KC; i.n. lovastatin, 48 hours after LPS, four groups): not different | KC concentration in the lavage fluid (KC; i.p. lovastatin pretreatment, 24 hours after i.n. LPS): significant reduction

CC(C)=CCC/C(C)=C/CC/C(C)=C/CC/C(C)=C/CO [GGOH, all trans-geranylgeraniol]
RhoA migration on addition with lovastatin (RhoA; GGOH 5 μM with lovastatin): more rapid migration of RhoA as seen in untreated cells | concentration required to rescue Jurkat cell from the inhibitory effect of lovastatin ([1]; 10 μM lovastatin (FIG. 3B)): 2.5 µM | reversal of the inhibitory effect of lovastatin on PMA-stimulated Jurkat cell adhesion [1]: reversed
